{"source": "patent US20230116196A1", "about": "“METHOD OF TREATING CNS DISORDERS WITH NEU[…] GABAERGIC COMPOUNDS” (priority 2017, published 2023)", "key": {"[1]": {"test_system": "GABAA receptor α4 and β3 subunits", "assay": "Biotinylation: cell surface levels of GABAA receptor subunits in hippocampal slices", "assay_type": "cell-based, mouse", "settings": "for GABAA-β3-containing receptors at the plasma membrane / cell surface stability of the β3 subunit: acute hippocampal slices", "description": "Hippocampi were dissected out of acute slices from 8 to 12 week old C57/Bl6 mice and lysed with […] including: 20 mM Tris-HCl, 150 mM NaCl, 5 mM EDTA, 10 mM NaF, 2 mM Na3VO4, 10 mM pyrophosphate, 0.1% SDS and 1% Triton after drug treatment. The β3 subunit was isolated using immunoprecipitation with β3 antibodies, after correction for protein content and the specific activity of labeling. Results were attained by SDS/PAGE followed by autoradiography (Abramian et al., 2010). For biotinylation experiments hippocampi were dissected out of acute slices from 8 to 12 week old C57/Bl6 mice and incubated in artificial cerebrospinal fluid (ACSF) described above at 30° C. for 1 h for recovery before experimentation. Slices were then placed on ice and incubated for 30 min with 1 mg/mL NHS-SS-biotin (Pierce). Excess biotin was removed by a 50 mM glycine quenching buffer, followed by washing of slices three times in ice-cold ACSF. The tissue was snap frozen on dry ice for 5 min, thawed at 4° C. and lysed. The lysates were solubilized with 2% Triton at 4° C. on a rotating wheel for 1 h. The insoluble material was removed by centrifugation, and 350-500 μg of protein lysate were incubated with NeutrAvidin beads (Pierce) for 18-24 h at 4° C. Bound material was eluted with sample buffer and subjected to SDS/PAGE and then immunoblotted with the indicated antibodies. Blots were then quantified using the CCD-based ChemiDoc XRS ? system. Antibodies against the β3 subunit and the phospho-β3 antibody were generated and verified by the laboratory of S.J.M. (Vien et al., 2015).\nHippocampal slices were treated as outlined above. Treated slices were then subject to biotinylation and lysis, and surface fractions were isolated on immobilized avidin. Surface (S) and total (T) fractions were immunoblotted with α4 and β3 subunit antibodies.\nThe ratio of surface/total (S/T) immunoreactivity was then normalized to levels seen in control (100%)."}, "[2]": {"test_system": "GT1-7 cells", "assay": "Immunoblot of β3 S408/9 phosphorylation in GT1-7 cells", "assay_type": "cell-based", "settings": "100 nM, 15 min", "description": "GT1-7 cells that co-express mPRα and GABAARs were used to measure the level of phosphorylation at S408/9 position of β3 subunit. […] Expression of mPRα was confirmed using western blotting.\nGT1-7 cells were treated with 100 nM AllO or P4 for 15 min and immunoblotted with antibodies specifically recognizing β3, actin, and […] β3 subunit (pS408/9). The ratio of pS408/9 β3 subunit immunoreactivity were then normalized to levels seen in vehicle treated to controls, n=6."}, "[3]": {"test_system": "DGGCs from mutant mice", "assay": "sIPSC decay time in DGGCs from mutant mice", "assay_type": "cell-based, mouse", "settings": "100 nM ALLO", "description": "The ability of 100 nM ALLO to modulate the decay time of sIPSCs was compared in DGGCs from WT and S940A mice as detailed in FIG. 2."}, "[4]": {"test_system": "GABAA receptor α4 subunit S443", "assay": "Immunoblot of α4 S443 phosphorylation in hippocampal slices", "assay_type": "cell-based, mouse", "settings": "100 SGE-516 for 5 min", "description": "Treatment of hippocampal slices with SGE-516 increased the phosphorylation of S408/9 measured using pS408/9 antibodies. To produce antibodies specific for phosphorylated S443, rabbits were injected with a synthetic peptide corresponding to residues […] of the murine α4 subunit in which the serine residue corresponding to S443 was chemically phosphorylated; […]. Hippocampal slices were treated with vehicle (Con), or SGE-516 for 20 min. Slices were immunoblotted with pS408/9, β3, or actin antibodies. The ratio of pS408/9/β3 immunoreactivity was then normalized to control slices (100%=the line).\nAffinity purified pS443 was used to immunoblot varying concentrations of the immunizing phosphor-peptide (PP). pS443 was used to immunoblot extracts of hippocampal slices treated without preadsorption (0), preadsorbed with the dephosphorylated (DP), or phosphorylated antigen (PP). […] Moreover, the detection of this band was blocked by the phospho—but not the dephospho-antigen (FIG. 7B).\nHippocampal slices were treated with vehicle (Con) or 100 SGE-516 for 5 min and then immunoblotted with pS443 and α4 antibodies as indicated. pS443 immunoreactivity in hippocampal slices was increased by exposure to SGE-516, while total α4 levels were unaffected (FIG. 7C)."}, "[5]": {"test_system": "DGGCs from S408/9A mice", "assay": "Sustained effect on tonic current in DGGCs from S408/9A mice", "assay_type": "cell-based, mouse", "settings": "100 nM, washout"}, "[6]": {"test_system": "GABAA receptor α4 S443 and β3 S408/9", "assay": "Phosphorylation of S443 and S408/9 in brains of mice after IP injection", "assay_type": "in vivo, mouse", "settings": "5 mg/kg IP, 30 min after treatment", "description": "C57/B16 mice injected with SGE-516 (5 mg/kg IP), or vehicle. 30 min after the treatment mice were sacrificed by microwave irradiation. SDS-soluble hippocampal extracts were then immunoblotted with pS443, α4, pS408/9, or β3 subunit antibodies."}, "[7]": {"test_system": "GABAARs containing the α4 and β subunits, S408/9A mice", "assay": "Biotinylation: cell surface levels of GABAARs in hippocampal slices from S408/9A mice", "assay_type": "cell-based, mouse", "settings": "100 nM, 20 min", "description": "Consistent with the examples above, hippocampal slices from WT and S408/9A mice were treated for 20 min with 100 nM SGE-516 or vehicle (Con) and subjected to biotinylation followed by immunoblotting with β and α4 subunit antibodies. The ratio of surface/total (S/T) immunoreactivity was then normalized to levels seen in control (100%)."}, "[8]": {"test_system": "dentate gyrus granule cells (DGGCs)", "assay": "sIPSCs in DGGCs after 15 min NAS exposure and >30 min wash", "assay_type": "cell-based, mouse", "description": "Bar graphs show average sIPSC decay and amplitude.\nFor tonic current measurements, an all-points histogram was plotted for a 10 s period before and during 100 μM picrotoxin application, once the response reached a plateau level. Recordings with unstable baselines were discarded. Fitting the histogram with a Gaussian distribution gave the mean baseline current amplitude and the difference between the amplitudes before and during picrotoxin was considered to be the tonic current. The negative section of the all-points histogram which corresponds to the inward IPSCs was not fitted with a Gaussian distribution (Kretschmannova et al., 2013; Nusser and Mody, 2002). Series resistance and whole-cell capacitance were continually monitored and compensated throughout the course of the experiment. Recordings were eliminated from data analysis if series resistance increased by >20%. Spontaneous inhibitory post-synaptic currents (sIPSCs) were analyzed using the mini-analysis software (version 5.6.4; Synaptosoft, Decatur, Ga.). […] Only recordings with a minimum of 200 events fitting these criteria were analyzed. sIPSCs amplitude, and frequency from each experimental condition was pooled and expressed as mean±SEM. To measure sIPSC decay, 100 consecutive events were averaged and the decay was fitted to a double exponential and the weighted decay constant (tw) was determined. […]"}}, "data": [{"smiles": "CC(=O)[C@H]1CC[C@H]2[C@@H]3CC[C@H]4C[C@H](O)CC[C@]4(C)[C@H]3CC[C@]12C", "note": "[ALLO, Allopregnanolone]", "values": [{"measurement": "GABAA-β3-containing receptors at the plasma membrane / cell surface stability of the β3 subunit", "setting": "[1]; 100 nM", "value": "increases"}, {"measurement": "S408/9 phosphorylation in GT1-7 cells", "setting": "[2]", "value": "increase"}, {"measurement": "sIPSC decay time in the mutant mice", "setting": "[3]", "value": "did not increase"}]}, {"smiles": "C[C@@]1(O)CC[C@@]2(C)[C@H](CC[C@@H]3[C@@H]2CC[C@]2(C)[C@@H](C(=O)Cn4nccn4)CC[C@@H]32)C1", "note": "[SGE-516]", "values": [{"measurement": "pS443 immunoreactivity in hippocampal slices", "setting": "[4]", "value": "increased"}, {"measurement": "total α4 levels", "setting": "[4]", "value": "unaffected"}, {"measurement": "GABAA-β3-containing receptors at the plasma membrane / cell surface stability of the β3 subunit", "setting": "[1]; 100 nM", "value": "increases"}, {"measurement": "plasma membrane levels of GABAARs containing the α4 and β subunits, S/T normalized to control (100%)", "setting": "[1]; WT mice slices, 100 nM, 20 min", "value": "175-185%"}, {"measurement": "plasma membrane accumulation of both the α4 and β3 subunits", "setting": "[1]; hippocampal slices, surface/total", "value": "increased"}, {"measurement": "tonic current in S408/9A mice", "setting": "[5]", "value": "did not modify"}, {"measurement": "phosphorylation of S443 and S408/9 in the brains of mice", "setting": "[6]", "value": "increased"}, {"measurement": "increase of plasma membrane levels of GABAARs in slices from S408/9A mice", "setting": "[7]", "value": "not seen"}, {"measurement": "SGE-516 enhancement of sIPSC amplitude in presence of GFX", "setting": "[8]; 100 nM SGE-516 with GFX", "value": "significantly reduced"}, {"measurement": "sIPSC amplitude following exposure and wash", "setting": "[8]; 100 nM, 15 min, >30 min wash", "value": "significantly enhanced"}]}]}
